Experimental data reported in PMC12466090 (Photochemistry and Photobiology, 2025).

Assays:
[1] = in water; standard of the relative method; no reference given; cited from earlier work
[2] = UV-VIS absorption / fluorescence spectroscopy; assay type: physicochemical; details: fluorescence spectrum in washed cells, excitation at 600 nm (Figure S3)

Compound | singlet oxygen quantum yield (ΦΔ) of the reference standard [1] | form bound to cells (fluorescence spectrum after uptake) [2]
CN(C)c1ccc2nc3ccc(=[N+](C)C)cc-3sc2c1 [methylene blue] | 0.52 | –
cRGDfK (Arg–Gly–Asp–D–Phe–Lys) (head to tail) [SiPc‐2c(RGDfK)] | – | monomeric form is bound to cells
